Measured values published in patent US9556155B2, “Methods of treating fatty liver disease” (Genzyme Corporation, priority 2006, dated 2017).

Key:
Type in all cases: in vivo
ob/ob mice = assay: Liver weight and body weight in ob/ob mice
Protocol: FIG. 6 is a graph comparing the liver weight to body weight ratios of ob/ob mice treated with water, ob/ob mice treated with Formula X, and lean mice treated with water after 6 weeks of treatment.
Male ob/ob mice were obtained from the Jackson Laboratories (Bar Harbor, Me.). These mice, being deficient in leptin, are hyperphagic and rapidly become obese. Severe hepatic steatosis is a characteristic of this model. Beginning at 7 weeks of age the mice were treated with Formula X by daily oral gavage (dosed 2× per day at 60 mg/kg/dose or 120 mg/kg/day). […] After 6 weeks of treatment, the animals were sacrificed and the livers dissected and weighed. In the placebo treated ob/ob mice, the liver weight to body weight ratio was higher than in lean animals (FIG. 6). […] N=6-8 mice per group.

[1] = tested on: hepatic genes involved in lipogenesis, gluconeogenesis, inflammation, and fibrosis; assay: Quantitative RT-PCR of hepatic genes in ob/ob mice; conditions: 120 mg/kg/day oral gavage, 6 weeks, vs placebo
Text: FIGS. 7A-G are a series of graphs comparing the expression of hepatic genes involved in lipogenesis, gluconeogenesis, inflammation, and fibrosis in ob/ob mice treated with water, ob/ob mice treated with Formula X, and lean mice treated with water after 6 weeks of treatment. In FIG. 7A, lower levels of sterol regulatory element binding protein 1c (SREBP-1c) RNA are observed in the drug-treated versus placebo-treated control animals. In FIG. 7B, lower levels of acid citrate lyase 1 (ACL1) are observed in the drug-treated versus placebo-treated control animals. In FIG. 7C, lower levels of acetyl coenzyme A carboxylase 1 (ACC1) are observed in the drug-treated versus placebo-treated control animals. In FIG. 7D, lower levels of fatty acid synthase (FAS) are observed in the drug-treated versus placebo-treated control animals. In FIG. 7E, lower levels of tumor necrosis factor 1 alpha (TNF-α) are observed in the drug-treated versus placebo-treated control animals. In FIG. 7F, lower levels of glucose 6-phosphatase (G6P) are observed in the drug-treated versus placebo-treated control animals. In FIG. 7G, lower levels of procollagen type 1 (collagen) are observed in the drug-treated versus placebo-treated control animals. Thus, treatment with Formula X reduced the expression of genes involved in lipogenesis (SREBP-1c, ACL1, ACC1, FAS), gluconeogenesis (G6P), inflammation (TNF-α), and fibrosis.
The ob/ob mice, beginning at 7 weeks of age, were treated with Formula X by daily oral gavage (dosed 2× per day at 60 mg/kg/dose, or 120 mg/kg/day) for 6 weeks. The mice were sacrificed and total RNA was purified from the livers for quantitative RT-PCR (FIG. 7) of sterol regulatory element binding protein 1c (SREBP-1c), acid citrate lyase 1 (ACL1), acetyl coenzyme A carboxylase 1 (ACC1), fatty acid synthase (FAS), tumor necrosis factor 1 alpha (TNF-α), glucose 6-phosphatase (G6P), and procollagen type 1 (collagen).

[2] = tested on: diet-induced obese (DIO) C57BL/6 mice; assay: Hepatic steatosis in DIO mice, hematoxylin and eosin stained liver sections; conditions: 125 mg/kg daily oral gavage, 10 weeks, vs water control
Protocol: FIGS. 2A-2C are a series of photographs comparing hematoxylin and eosin stained liver sections of (A) diet-induced obese (DIO) C57BL/6 mice treated with water (control), (B) DIO mice treated with D-threo-1-(3′,4′-ethylenedioxy)phenyl-2-octanoylamino-3-pyrrolidino-1-propanol (Formula XI), and (C) lean mice treated with water (control). Mice were treated by daily oral gavage for 10 weeks and then sacrificed. In FIG. 1A, large vacuoles are visible throughout the parenchyma of the livers from the water-treated control mice. […] In FIG. 1C, the livers of normal, lean mice are devoid of any lipid-filled vacuoles.
Diet-induced obese (DIO) mice were first generated by placing C57BL/6 mice on a high-fat (45% of kcal) diet (D12451, Research Diets, Inc., New Brunswick, N.J.) for 8 weeks. Obese mice that had elevated glucose and insulin levels were selected and then treated with Formula XI by daily oral gavage (125 mg/kg) or with water as a control. After 10 weeks of treatment, the livers were harvested, sectioned, and stained with hematoxylin and eosin. Large vacuoles were visible throughout the parenchyma of the livers from the water control mice (FIGS. 2A-2C). These vacuoles contain neutral lipid by Oil Red O staining of the liver sections.

DIO mice [3] = assay: Markers of liver toxicity in blood of DIO mice; conditions: 125 mg/kg/day oral gavage, 9 weeks, vs placebo
Text: FIGS. 5A-5D are a series of graphs comparing the levels of liver enzymes in DIO mice treated with water and DIO mice treated with Formula XI for 9 weeks. In FIG. 1A, lower levels of alanine aminotransferase (ALT) are observed in the drug-treated versus placebo-treated control animals. In FIG. 1B, lower levels of aspartate aminotransferase (AST) are observed in the drug-treated versus placebo-treated control animals. In FIG. 1C, lower levels of alkaline phosphatase are observed in the drug-treated versus placebo-treated control animals. In FIG. 1D, lower levels of γ-glutamyltransferase (GGT) are observed in the drug-treated versus placebo-treated control animals.
DIO mice were generated as described in Example 1. Mice were maintained on the high-fat diet for an additional 23 weeks (total time on diet 31 weeks). The mice were then treated with Formula XI by daily oral gavage (125 mg/kg/day). Blood was collected after 9 weeks of treatment and markers of liver toxicity were analyzed (IDEXX Laboratories, West Sacramento, Calif.). Lower levels of alanine aminotransferase (ALT), aspartate aminotransferase (AST), alkaline phosphatase, and gamma-glutamyltransferase (GGT) were found in the drug-treated versus placebo-treated control animals (FIGS. 5A-5D).

DIO mice [4] = assay: Liver weight and body weight in DIO mice
Protocol: FIG. 4 is a graph comparing the liver weight to body weight ratios of DIO mice treated with water, DIO mice treated with Formula XI, and lean mice treated with water after 9 and 17 weeks of treatment.
DIO mice were generated as described in Example 1. Mice were maintained on the high-fat diet for an additional 23 weeks (total time on diet 31 weeks). The mice were then treated with Formula XI by daily oral gavage (125 mg/kg/day). […] After 9 and 17 weeks of treatment, groups of animals were sacrificed and the livers dissected and weighed. In the DIO mice, the liver weight to body weight ratio was higher than in lean animals.

DIO mice [5] = assay: Liver triglyceride levels in DIO mice (hepatic lipid extracts); conditions: 75 or 125 mg/kg daily oral gavage, 16 weeks, vs water control
Protocol: FIG. 3 is a graph comparing the mean levels of liver triglycerides in DIO mice treated with water, DIO mice treated with 75 mg/kg Formula XI, DIO mice treated with 125 mg/kg Formula XI, and lean mice treated with water. Mice were treated by daily oral gavage for 16 weeks and then euthanized. The livers were harvested and homogenized. Triglyceride levels were measured in hepatic lipid extracts.
DIO mice were generated as described in Example 1 and then treated with Formula XI by daily oral gavage at a dose of 75 or 125 mg/kg. Mice gavaged with water served as the control. After 16 weeks of treatment the livers were harvested and homogenized. The lipids were extracted with methanol:chloroform (4.3:3 v/v) and CaCI2. The extracted lipids were dried and dissolved in dimethylsulfoxide (DMSO). Triglycerides were measured using the Serum Triglyceride Determination kit (Sigma-Aldrich, St. Louis, Mo.) according to the protocol supplied by the manufacturer.

## CCCCCCCCC(=O)NC(CN1CCCC1)C(O)c1ccc2c(c1)OCCO2 (stereo not shown) [Formula X, 1-(1,4-benzodioxan-6-yl)-2-nonanoylamino-3-pyrrolidino-1-propanol]
ob/ob mice; 120 mg/kg/day oral gavage, 6 weeks
  liver weights: significantly reduced
ob/ob mice; 6 weeks of treatment, vs water
  liver weight to body weight ratio: reduction
[1]
  acetyl coenzyme A carboxylase 1 (ACC1) expression in liver: lower levels
  acid citrate lyase 1 (ACL1) expression in liver: lower levels
  fatty acid synthase (FAS) expression in liver: lower levels
  glucose 6-phosphatase (G6P) expression in liver: lower levels
  procollagen type 1 (collagen) expression in liver: lower levels
  sterol regulatory element binding protein 1c (SREBP-1c) RNA level in liver: lower levels
  tumor necrosis factor 1 alpha (TNF-α) expression in liver: lower levels

## CCCCCCCC(=O)NC(CN1CCCC1)C(O)c1ccc2c(c1)OCCO2 (stereo not shown) [Formula XI, 1-(1,4-benzodioxan-6-yl)-2-octanoylamino-3-pyrrolidino-1-propanol]
[2]
  size of liver vacuoles: appreciably smaller
  vacuoles visible in the livers (neutral lipid): significantly fewer vacuoles
DIO mice [3]
  alanine aminotransferase (ALT) level: Lower levels
  alkaline phosphatase level: Lower levels
  aspartate aminotransferase (AST) level: Lower levels
  gamma-glutamyltransferase (GGT) level: Lower levels
DIO mice [4]; 125 mg/kg/day oral gavage, 9 and 17 weeks
  liver weights: significantly reduced
DIO mice [4]; 125 mg/kg/day oral gavage, after 17 weeks, vs lean group
  liver/body weight ratio: comparable to that of the lean group
DIO mice [4]; 9 and 17 weeks of treatment, vs water
  liver weight to body weight ratio: reduction
DIO mice [5]
  total triglyceride levels in the liver: dose-dependent reduction
